The values that follow come from paper PMC11129182, “Development of Inhibitors, Probes, and PROTAC Provides a Complete Toolbox to Study PARK7 in the Living Cell” (Journal of Medicinal Chemistry, 2024).

The first assay deals with T1, PARK7 (Homo sapiens, UniProt Q99497).
T1 sequence (Q99497 1-189): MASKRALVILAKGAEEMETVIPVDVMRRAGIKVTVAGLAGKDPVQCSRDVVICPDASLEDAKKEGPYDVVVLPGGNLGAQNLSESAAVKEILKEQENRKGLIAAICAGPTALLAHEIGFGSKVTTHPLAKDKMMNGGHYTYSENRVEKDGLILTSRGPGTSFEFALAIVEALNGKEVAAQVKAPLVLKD
The assay can be described thus: High-throughput screen of the crude compound library, PARK7 fluorescence polarization (FP) assay with FP reagent JYQ-107. The format is biochemical. Particulars: 1.25 µM, crude compound library, FP reagent JYQ-107; read-out: HTS FP assay %Inhibition (1.25 µM). The text has this:
Therefore, taking JYQ-88 as a starting point, we conducted an optimization to further improve the molecule in terms of inhibitory potency, specificity, and cellular uptake. […] First, a small tailored library was designed and synthesized to investigate whether the introduction of larger, hydrophilic substituents on JYQ-88 would enhance the interaction with the PARK7 pocket. […] The second approach involved the generation of a compound library containing diverse substituents at the azidomethyl position. […] We next performed a high-throughput screen of this crude compound library using our in-house developed PARK7 fluorescence polarization (FP) assay.[15]
Background: Polarisation of emitted light reports the rotation of a fluorescent probe.
One may read the inhibition as the percentage by which the read-out fell short of the control. Turning to `N#CN1CC[C@@H](C(=O)Nc2nc3c(s2)CN(C(=O)c2cccc(B(O)O)c2)CC3)C1` [compound 444], the inhibition at 1.25 µM was found to be 68.5%.
Take `N#CN1CC[C@@H](C(=O)Nc2nc3c(s2)CN(C(=O)c2cc(-c4cccc(Cl)c4)no2)CC3)C1` [compound 453]: the inhibition at 1.25 µM was 52.8%.
On to `CC(=O)NCC(=O)N1CCc2nc(NC(=O)[C@@H]3CCN(C#N)C3)sc2C1` [compound 389], for which the inhibition at 1.25 µM worked out at 71.7%.
Take `N#CN1CC[C@@H](C(=O)Nc2nc3c(s2)CN(C(=O)c2cn[nH]c2C2CC2)CC3)C1` [compound 357]: the inhibition at 1.25 µM turned out to be 69.7%.
`CC(=O)CCCC(=O)N1CCc2nc(NC(=O)[C@@H]3CCN(C#N)C3)sc2C1` [compound 431]: the inhibition at 1.25 µM amounted to 72.4%.
Consider `N#CN1CC[C@@H](C(=O)Nc2nc3c(s2)CN(C(=O)CCCCCBr)CC3)C1` [compound 412], for which the inhibition at 1.25 µM was determined as 52.5%.
Regarding `CN1CCN(c2ccc(C(=O)N3CCc4nc(NC(=O)[C@@H]5CCN(C#N)C5)sc4C3)cc2)CC1` [compound 472], the inhibition at 1.25 µM is 70.8%.
Take `CC(=O)CCC(=O)N1CCc2nc(NC(=O)[C@@H]3CCN(C#N)C3)sc2C1` [compound 443]: the inhibition at 1.25 µM came out at 72.8%.
With `COc1ccccc1-c1cc(C(=O)N2CCc3nc(NC(=O)[C@@H]4CCN(C#N)C4)sc3C2)n[nH]1` [compound 452], the inhibition at 1.25 µM amounted to 84.6%.
Turning to `N#CN1CC[C@@H](C(=O)Nc2nc3c(s2)CN(C(=O)CC2CCN(c4ccc(Cl)nn4)CC2)CC3)C1` [compound 371], the inhibition at 1.25 µM is 74.8%.
On to `Cc1cccc(COc2cccc(C(=O)N3CCc4nc(NC(=O)[C@@H]5CCN(C#N)C5)sc4C3)c2)c1` [compound 383], for which the inhibition at 1.25 µM amounted to 87.5%.
Take `N#CN1CC[C@@H](C(=O)Nc2nc3c(s2)CN(C(=O)c2ccc(N4CCOCC4)cc2)CC3)C1` [compound 473]: the inhibition at 1.25 µM is 72.4%.
Still for that read-out and setting: the result for `N#CN1CC[C@@H](C(=O)Nc2nc3c(s2)CN(C(=O)c2ccc(B(O)O)cc2)CC3)C1` [compound 407] reads 58.7%; that for `CC(C)CC(=O)N1CCc2nc(NC(=O)[C@@H]3CCN(C#N)C3)sc2C1` [compound 390], 67.9%; that for `N#CN1CC[C@@H](C(=O)Nc2nc3c(s2)CN(C(=O)c2ccc(Cn4ccccc4=O)o2)CC3)C1` [compound 366], 79.5%.
In the case of `CC(C)n1nccc1[C@@H]1OCC[C@H]1C(=O)N1CCc2nc(NC(=O)[C@@H]3CCN(C#N)C3)sc2C1` [compound 367], the inhibition at 1.25 µM came to 65%.
On the same count and under the same terms, the result for `N#CN1CC[C@@H](C(=O)Nc2nc3c(s2)CN(C(=O)CC2C(=O)Nc4ccccc42)CC3)C1` (stereo partly drawn) [compound 465] reads 81.8%.
In the case of `N#CN1CC[C@@H](C(=O)Nc2nc3c(s2)CN(C(=O)c2ccc(F)c(F)c2)CC3)C1` [compound 446], the inhibition at 1.25 µM was 74.4%.
As to `N#CN1CC[C@@H](C(=O)Nc2nc3c(s2)CN(C(=O)CCN2C(=O)C=CC2=O)CC3)C1` [compound 398], the inhibition at 1.25 µM came to 65.7%.
With `CN(C)c1ccc(C(=O)N2CCc3nc(NC(=O)[C@@H]4CCN(C#N)C4)sc3C2)cc1` [compound 449], the inhibition at 1.25 µM was 82.9%.

The same assay, now with this note: 1.25 µM, crude compound library; read-out: HTS FP assay %Inhibition (1.25 µM).
As for `N#CN1CC[C@@H](C(=O)Nc2nc3c(s2)CN(C(=O)c2ccc(S(=O)(=O)N4CCOCC4)cc2)CC3)C1` [compound 98], the inhibition at 1.25 µM is 78.4%.
Turning to `Cc1nc(-c2ccsc2)ccc1C(=O)N1CCc2nc(NC(=O)[C@@H]3CCN(C#N)C3)sc2C1` [compound 296], the inhibition at 1.25 µM stood at 73.2%.
As to `N#CN1CC[C@@H](C(=O)Nc2nc3c(s2)CN(C(=O)c2ccc(-n4ccnc4)nn2)CC3)C1` [compound 92], the inhibition at 1.25 µM was found to be 64.4%.
For the molecule `CCn1nccc1-c1cc(C(=O)N2CCc3nc(NC(=O)[C@@H]4CCN(C#N)C4)sc3C2)no1` [compound 285], the inhibition at 1.25 µM was found to be 81.3%.
Same read-out and setting: the result for `N#CN1CC[C@@H](C(=O)Nc2nc3c(s2)CN(C(=O)C2CCN(c4ccc(=O)[nH]n4)CC2)CC3)C1` [compound 89] reads 68.2%; that for `N#CN1CC[C@@H](C(=O)Nc2nc3c(s2)CN(C(=O)c2ccccc2OCc2cccs2)CC3)C1` [compound 325], 86.9%; that for `COc1ccc(CC(=O)N2CCc3nc(NC(=O)[C@@H]4CCN(C#N)C4)sc3C2)cc1S(=O)(=O)N1CCOCC1` [compound 257], 75.5%.
With `CC1CN(S(=O)(=O)c2ccc(C(=O)N3CCc4nc(NC(=O)[C@@H]5CCN(C#N)C5)sc4C3)cc2)CC(C)O1` (stereo partly drawn) [compound 307], the inhibition at 1.25 µM was 84.8%.
On to `Cn1cc(-c2ccc(C(=O)N3CCc4nc(NC(=O)[C@@H]5CCN(C#N)C5)sc4C3)o2)cn1` [compound 220], for which the inhibition at 1.25 µM was 27.6%.
Turning to `N#CN1CC[C@@H](C(=O)Nc2nc3c(s2)CN(C(=O)c2cn(CC4CCOC4)nn2)CC3)C1` (stereo partly drawn) [compound 234], the inhibition at 1.25 µM was 82.7%.
Turning to `N#CN1CC[C@@H](C(=O)Nc2nc3c(s2)CN(C(=O)C(Cc2ccccc2)N2CCCOC2=O)CC3)C1` (stereo partly drawn) [compound 252], the inhibition at 1.25 µM stood at 74.6%.
On to `Cc1noc(C)c1COc1ccc(CC(=O)N2CCc3nc(NC(=O)[C@@H]4CCN(C#N)C4)sc3C2)cc1` [compound 107], for which the inhibition at 1.25 µM was found to be 82.7%.
On the same count and under the same terms, the figure for `N#CN1CC[C@@H](C(=O)Nc2nc3c(s2)CN(C(=O)c2ccc(OCc4ccncc4)cc2)CC3)C1` [compound 21] is 59.5%; for `N#CN1CC[C@@H](C(=O)Nc2nc3c(s2)CN(C(=O)CC2=NN(c4ncc(C(F)(F)F)cc4Cl)C(=O)C2)CC3)C1` [compound 109] it is 68.1%; for `COc1ccc(N2CCN(C(C)C(=O)N3CCc4nc(NC(=O)[C@@H]5CCN(C#N)C5)sc4C3)CC2)cc1` (stereo partly drawn) [compound 46] it is 71.3%.
Same read-out and setting: the figure for `N#CN1CC[C@@H](C(=O)Nc2nc3c(s2)CN(C(=O)c2ccc(-c4cccs4)[nH]c2=O)CC3)C1` [compound 200] is 72.4%; for `N#CN1CC[C@@H](C(=O)Nc2nc3c(s2)CN(C(=O)c2ccc(CN4CCCCCC4)s2)CC3)C1` [compound 195] it is 72.4%; for `N#CN1CC[C@@H](C(=O)Nc2nc3c(s2)CN(C(=O)c2cc(-c4cccc(Cl)c4)no2)CC3)C1` [compound 245] it is 10.9%.
For `N#CN1CC[C@@H](C(=O)Nc2nc3c(s2)CN(C(=O)c2sccc2-n2cccc2)CC3)C1` [compound 310], the inhibition at 1.25 µM is 85.3%.
Turning to `COc1ccc(OCc2cc(C)on2)c(C(=O)N2CCc3nc(NC(=O)[C@@H]4CCN(C#N)C4)sc3C2)c1` [compound 116], the inhibition at 1.25 µM was determined as 81.9%.
For `N#CN1CC[C@@H](C(=O)Nc2nc3c(s2)CN(C(=O)C2CN(C(=O)OCc4ccccc4)CCO2)CC3)C1` (stereo partly drawn) [compound 216], the inhibition at 1.25 µM worked out at 76.7%.
As for `Cc1oc(-c2cccs2)nc1C(=O)N1CCc2nc(NC(=O)[C@@H]3CCN(C#N)C3)sc2C1` [compound 263], the inhibition at 1.25 µM worked out at 78.3%.
Turning to `N#CN1CC[C@@H](C(=O)Nc2nc3c(s2)CN(C(=O)c2ccc(-c4ccccc4)o2)CC3)C1` [compound 166], the inhibition at 1.25 µM turned out to be 87.3%.
`N#CN1CC[C@@H](C(=O)Nc2nc3c(s2)CN(C(=O)C2Cc4ccccc42)CC3)C1` (stereo partly drawn) [compound 179]: the inhibition at 1.25 µM is 81%.
Take `N#CN1CC[C@@H](C(=O)Nc2nc3c(s2)CN(C(=O)c2ccc(S(=O)(=O)Nc4cccc(Cl)c4F)o2)CC3)C1` [compound 205]: the inhibition at 1.25 µM was found to be 72.5%.
Consider `Cc1csc(N2CCCC(C(=O)N3CCc4nc(NC(=O)[C@@H]5CCN(C#N)C5)sc4C3)C2)n1` (stereo partly drawn) [compound 142], for which the inhibition at 1.25 µM was found to be 85.9%.
In the case of `N#CN1CC[C@@H](C(=O)Nc2nc3c(s2)CN(C(=O)c2c[nH]nc2-c2ccncc2)CC3)C1` [compound 326], the inhibition at 1.25 µM was determined as 69.7%.
For `Cn1ccnc1CN1CCC(C(=O)N2CCc3nc(NC(=O)[C@@H]4CCN(C#N)C4)sc3C2)CC1` [compound 265], the inhibition at 1.25 µM is 70.6%.
For the molecule `N#CN1CC[C@@H](C(=O)Nc2nc3c(s2)CN(C(=O)c2cc(S(=O)(=O)N4CCOCC4)c[nH]2)CC3)C1` [compound 115], the inhibition at 1.25 µM was determined as 81%.
For the molecule `N#CN1CC[C@@H](C(=O)Nc2nc3c(s2)CN(C(=O)c2cc(COc4ccc(F)cc4F)on2)CC3)C1` [compound 335], the inhibition at 1.25 µM worked out at 79.4%.
`CN(Cc1ccco1)c1ccccc1C(=O)N1CCc2nc(NC(=O)[C@@H]3CCN(C#N)C3)sc2C1` [compound 67]: the inhibition at 1.25 µM was 72.7%.
Take `Cc1ccc(-n2c(C)ccc2C)c(C(=O)N2CCc3nc(NC(=O)[C@@H]4CCN(C#N)C4)sc3C2)c1` [compound 12]: the inhibition at 1.25 µM was 66.6%.
`N#CN1CC[C@@H](C(=O)Nc2nc3c(s2)CN(C(=O)c2ncoc2-c2ccco2)CC3)C1` [compound 62]: the inhibition at 1.25 µM amounted to 78.9%.
As to `N#CN1CC[C@@H](C(=O)Nc2nc3c(s2)CN(C(=O)c2csc(-c4ccc(Br)s4)n2)CC3)C1` [compound 208], the inhibition at 1.25 µM came out at 86.4%.
As to `N#CN1CC[C@@H](C(=O)Nc2nc3c(s2)CN(C(=O)c2ccnc(N4CCOCC4)n2)CC3)C1` [compound 180], the inhibition at 1.25 µM came to 87.3%.

Staying with this assay, now noted: read-out: HTS FP assay %Inhibition (1.25 µM).
`CC(C)(C)OC(=O)N[C@@H](Cc1cn(-c2ccc([N+](=O)[O-])cc2[N+](=O)[O-])cn1)C(=O)N1CCc2nc(NC(=O)[C@@H]3CCN(C#N)C3)sc2C1` [compound 409]: the inhibition at 1.25 µM was found to be 75.4%.
With `N#CN1CC[C@@H](C(=O)Nc2nc3c(s2)CN(C(=O)Cn2cc(C=O)c4ccccc42)CC3)C1` [compound 423], the inhibition at 1.25 µM is 72.5%.
